In general, IC50 refers to the midpoint of a concentration-inhibition curve. As usually defined, the melting point is the temperature of the solid-liquid transition.

One data set deals with 80S14 (p21-deficient) cells. Kind of data set: Determination of selectivity of compounds for p21-/- cells: IC50 in 80S14 cells (SRB). Format: cell-based, human. The note with it: Homo sapiens, 120 h; 80S14 (p21-deficient) cells, 5 days at 37° C., SRB; read-out: IC50 for 80S14.
Regarding `O=C(Nc1cccc(-c2ccnc3c(C(=O)c4cccs4)cnn23)c1)OCC(Cl)(Cl)Cl` [Example 12, 2,2,2-trichloroethyl 3-[3-(thien-2-ylcarbonyl)pyrazolo[1,5-a]pyrimidin-7-yl]phenylcarbamate], the IC50 is < 1 µM.

Test system in the next data set: not given
Experiment: not given
Conditions: not given
The compound `CC(C)CC(=O)Nc1cccc(-c2ccnc3c(-c4cccc(N)c4)cnn23)c1` [Example 352, N-{3-[3-(3-Aminophenyl)pyrazolo[1,5-a]pyrimidin-7-yl]phenyl}-3-methylbutanamide] registered a melting point of 173 to 175 °C.

Compound `O=C(c1cccs1)c1cnn2c(Cl)ccnc12` [Example 284, (7-Chloropyrazolo[1,5-a]pyrimidin-3-yl)(thien-2-yl)methanone] yielded a melting point of 148 to 150 °C.

Turning to `C=C(C)CNc1cccc(-c2ccnc3c(C(=O)c4cccs4)cnn23)c1` [Example 322], the melting point fell in the range of 104 to 106 °C.

`CC(C)NC(=NC#N)Nc1cccc(-c2ccnc3c(C(=O)c4cccs4)cnn23)c1` [Example 304, N″-Cyano-N-isopropyl-N′-{3-[3-(thien-2-ylcarbonyl)pyrazolo[1,5-a]pyrimidin-7-yl]phenyl}guanidine] gave a melting point of 240 to 241 °C.

For `CC(C)NC(=N)Nc1cccc(-c2ccnc3c(C(=O)c4cccs4)cnn23)c1` [Example 301, N-Isopropyl-N′-{3-[3-(thien-2-ylcarbonyl)pyrazolo[1,5-a]pyrimidin-7-yl]phenyl}guanidine], the melting point is > 200 °C.

Turning to `O=C(O)c1ccccc1C(=O)Nc1cccc(-c2ccnc3c(C(=O)c4cccs4)cnn23)c1` [Example 331, 2-[({3-[3-(Thien-2-ylcarbonyl)pyrazolo[1,5-a]pyrimidin-7-yl]phenyl}amino)carbonyl]benzoic acid], the melting point lay within 215 to 216 °C.

In turn, `O=C(Nc1cccc(-c2ccnc3c(C(=O)c4cccs4)cnn23)c1)OCC(Cl)(Cl)Cl` [Example 12, 2,2,2-trichloroethyl 3-[3-(thien-2-ylcarbonyl)pyrazolo[1,5-a]pyrimidin-7-yl]phenylcarbamate] had a melting point of 197 to 200 °C.

Turning to `O=C(c1cccs1)c1cnn2c(-c3cccc(NCc4ccco4)c3)ccnc12` [Example 263, (7-{3-[(2-Furylmethyl)amino]phenyl}pyrazolo[1,5-a]pyrimidin-3-yl)(thien-2-yl)methanone], the melting point is 124 to 128 °C.

`C=C(CC)CNc1cccc(-c2ccnc3c(C(=O)c4cccs4)cnn23)c1` [Example 323] came in with a melting point of 79 to 82 °C.

Regarding `CCC(C)C(C)CNc1cccc(-c2ccnc3c(C(=O)c4cccs4)cnn23)c1` (stereo not shown) [Example 318], the melting point was in the range of 84 to 86 °C.

Compound `CCCCNC(=O)Nc1cccc(-c2ccnc3c(C(=O)c4cccs4)cnn23)c1` [Example 6, N-butyl-N′-{3-[3-(thien-2-ylcarbonyl)pyrazolo [1,5-a]pyrimidin-7-yl]phenyl}urea] registered a melting point of 158 to 160 °C.

`O=C(Nc1cccc(-c2ccnc3c(C(=O)c4cccs4)cnn23)c1)c1ccncc1` [Example 201, N-{3-[3-(2-Thienylcarbonyl)pyrazolo[1,5-a]pyrimidin-7-yl]phenyl}isonicotinamide] came in with a melting point of 212 to 215 °C.

Compound `COc1ccccc1/C=C/CNc1cccc(-c2ccnc3c(C(=O)c4cccs4)cnn23)c1` [Example 288, [7-(3-{[(2E)-3-(2-Methoxyphenyl)prop-2-enyl]amino}phenyl)pyrazolo[1,5-a]pyrimidin-3-yl](thien-2-yl)methanone] yielded a melting point of 128 to 131 °C.

Compound `CC/C=C/CNc1cccc(-c2ccnc3c(C(=O)c4cccs4)cnn23)c1` [Example 320] showed a melting point of 72 to 75 °C.

Turning to `O=C(Nc1cccc(-c2ccnc3c(C(=O)c4cccs4)cnn23)c1)c1ccccc1F` [Example 254, 2-Fluoro-N-{3-[3-(thien-2-ylcarbonyl)pyrazolo[1,5-a]pyrimidin-7-yl]phenyl}benzamide], the melting point is 190 to 191 °C.

The values are drawn from patent US20060063785A1, “Substituted pyrazolo[1,5-a] pyrimidines and process for making same” (priority 2004, published 2006).
